Columns and labels:
[1] = test system: cat fleas (Ctenocephalides felis), CO Fleas; test: In vivo cat flea contact assay, CO fleas; settings: Ctenocephalides felis, topical; contact with treated filter disk in vial, about 24-30 hours; mM = concentration of the DMSO solution, about 1 μL applied; read-out: LD50 (mM), CO Fleas
Outline: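 Compound in DMSO (0.05–100 mM stock), ~1 μL dried 24–48 h on GF/C disk in sealed glass vial; ~20 newly emerged fleas added after cold sedation, held in dark. Healthy, moribund and dead fleas counted after ~24–30 h; percent mortality corrected for DMSO-only control vials.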

[2] = biological target: T1, Housefly GABA receptors (Musca domestica, UniProt Q75NA5); test: In vitro assay of binding to housefly GABA receptors (3H-EBOB displacement, housefly neuronal membranes); settings: for Compounds with the most activity (housefly 3H-EBOB binding): housefly neuronal membranes
T1 sequence (Q75NA5 30-576): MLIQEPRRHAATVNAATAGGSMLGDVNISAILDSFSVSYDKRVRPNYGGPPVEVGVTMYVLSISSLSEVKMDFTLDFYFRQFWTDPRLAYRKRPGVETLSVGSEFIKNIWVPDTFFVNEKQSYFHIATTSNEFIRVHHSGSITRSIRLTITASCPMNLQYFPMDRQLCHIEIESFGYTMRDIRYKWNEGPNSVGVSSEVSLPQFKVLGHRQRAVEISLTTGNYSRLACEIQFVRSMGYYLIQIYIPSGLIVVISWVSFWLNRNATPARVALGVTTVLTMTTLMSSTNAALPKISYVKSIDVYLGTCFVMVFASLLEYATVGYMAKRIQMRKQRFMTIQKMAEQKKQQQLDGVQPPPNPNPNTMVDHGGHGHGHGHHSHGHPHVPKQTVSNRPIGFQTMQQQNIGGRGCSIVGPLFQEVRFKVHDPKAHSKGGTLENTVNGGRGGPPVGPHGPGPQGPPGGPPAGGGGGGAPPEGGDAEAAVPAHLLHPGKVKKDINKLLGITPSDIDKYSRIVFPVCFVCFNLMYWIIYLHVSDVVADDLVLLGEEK
Method: Newly emerged houseflies (Musca domestica, available from Rincon-Vitova Insectaries, Inc., Ventura, Calif.) were sedated with carbon dioxide gas, collected in 50 mL polypropylene conical tubes, and immediately frozen by submersion in liquid nitrogen. Unless specified, all of the following work was performed at 0-4° C. After removal from liquid nitrogen, the tubes of frozen houseflies were shaken vigorously by hand to decapitate the houseflies. […] Contaminating wings were removed by holding a vacuum nozzle approximately 4 cm above the heads, and contaminating legs were separated from the heads by passage through a #15 mesh screen. All remaining debris were removed from the pool of heads using forceps. The purified heads were collected in 50 mL polypropylene conical tubes and stored in liquid nitrogen until processed further.
About 13 g of purified housefly heads were suspended in about 65 mL of 10% sucrose buffer (10% sucrose (w/w) in 10 mM Tris, pH 7.5). The heads were homogenized for about 1 minute, using a Tissumizer™ homogenizer equipped with a SDT-100EN probe (available from Tekmar-Dohrmann, Cincinnati, Ohio) running at 70% of its maximum speed. The extract was further homogenized by about 5 passes through a 40 mL Dounce tissue grinder. The extract was then centrifuged at about 500×g for about 5 minutes to pellet large debris. The supernatant was collected; the pellet was washed with an additional 65 mL of 10% sucrose buffer and centrifuged at 500×g for about 5 minutes. The second supernatant was collected and combined with the first supernatant, and the pool was filtered through a 100μ CellMicroSieve™ mesh to remove residual debris (available from BioDesign of New York, Carmel, N.Y.).
Neuronal membranes containing active GABA receptors were collected via sucrose density centrifugation by the following method. About 8 mL of 35% sucrose buffer (35% sucrose (w/w) in 10 mM Tris, pH 7.5), were dispensed into each of six 38 mL ultracentrifuge tubes. These layers were overlaid with about 8 mL of 20% sucrose buffer (20% sucrose (w/w) in 10 mM Tris, pH 7.5), and finally overlaid with about 20 mL of filtered extract supernatant. The tubes were centrifuged at about 120,000×g for about 100 min at 4° C. After centrifugation, the 10% sucrose layer and most of the 20% sucrose layer were removed by aspiration. The membranes at the interface of the 20% sucrose and 35% sucrose layers were collected, pooled, diluted with 10% sucrose buffer, and centrifuged at about 120,000×g for about 40 min at 4° C. After centrifugation, the supernatant was discarded, and the pellets resuspended in about 6.5 mL of assay buffer (10 mM phosphate, 300 mM NaCl, pH 7.5) using a 10 mL Potter-Elvehjem tissue grinder with a Teflon® pestle. Protein concentration was determined by the Bio-Rad Protein Assay (available from Bio-Rad Laboratories, Hercules, Calif.) using bovine serum albumin as a standard. The membranes were aliquoted and stored in liquid nitrogen for up to 2 months before use.
Housefly neuronal membranes were prepared as described above from housefly heads. Test compounds were dissolved in dimethylsulfoxide (DMSO) at concentrations ranging from about 2 nM to about 100 mM. About 1 μL of a dissolved test compound was dispensed into a well of a 96-well polystyrene plate. About 100 μL of ice cold assay buffer (10 mM phosphate, 300 mM NaCl, pH 7.5) containing 5.2 nM 4′-Ethynyl-4-n-[2,3-^3H2]propylbicycloorthobenzoate (^3H-EBOB, 38 Ci/mmol, available from NEN Life Science Products, Boston, Mass.) was added to the well, followed by about 100 μL of ice cold assay buffer containing about 0.5-1.0 mg/mL housefly neuronal membranes. Control wells were prepared the same way except that the housefly neuronal membranes were omitted from the “negative” wells, and the test compounds were omitted from the “positive” wells. […]

Which LC50 [1] does the source give for FC(F)(F)c1cc(Cl)c(-n2cc3c(n2)CSC3)c(Cl)c1 [Compound 3, 2-[2,6-Dichloro-4-(trifluoromethyl)phenyl]-4,6-dihydrothieno-[3,4-c]pyrazole] here?
Its LC50 is 1.7 mM.

And the “Compounds with the most activity (housefly 3H-EBOB binding)” value [2]?
Its value is “most activity”.

Which LC50 [1] does the source give for FC(F)(F)c1cc(Cl)c(-n2cc3c(n2)CCC3)c(Cl)c1 [Compound 11, 2-[2,6-Dichloro-4-(trifluoromethyl)phenyl]-2,4,5,6-tetrahydrocyclopenta[c]pyrazole] here?
The LC50 was 8 mM.

And the IC50 ([2]; displacement of 5.2 nM 3H-EBOB, housefly head neuronal membranes, about 45 min at about 24° C., read-out: IC50 (nM), Fly Head)?
The IC50 was 83 nM.

What about the “Compounds with the most activity (housefly 3H-EBOB binding)” value [2] of the same compound?
Its value is “most activity”.

What does the source list for FC(F)(F)c1cc(Cl)c(-n2cc3c(n2)CCCCC3)c(Cl)c1 [Compound 15, 2-[2,6-Dichloro-4-(trifluoromethyl)phenyl]-2,4,5,6,7,8-hexahydrocyclohepta[c]pyrazole]?
LC50 [1]: 29.5 mM; Compounds with the most activity (housefly 3H-EBOB binding) [2]: most activity
